Patent US12544370B2, “Methods for cancer therapy” (ASCENTAGE PHARMA (SUZHOU) CO., LTD., priority 2018, dated 2026)

How the values were obtained:
[1] = biological target: Ba/F3 containing BCR-ABL mutation T315I/F359V (Homo sapiens, UniProt P00519, T315I/F359V, cells depend on it); conditions: read-out: Antiproliferation Effect (IC50)
Description: (§1) Ba/F3 cells stably expressing BCR-ABL (F359V, H396R, E255K, Y253H, T315I, F317L) mutations were provided by the Institute of Life and Health, Guangzhou Academy of Sciences.
(§2) 1. The mutated Ba/F3 cell line stably expressing BCR-ABL (E255V, T315M, Y253H/E255V, Y253H/T315I, Y253H/F359V, T315I/F317L, F317L/F359V) mutation was constructed by electro-transformation method, the Ba/F3 cell line stably expressing the BCR-ABL (E255V/T315I, T315I/F359V) mutation was constructed by lentivirus infection method.
(§3) 2. Effect of drugs on the proliferation of BaF3 cells stably transfected with BCR-ABL single mutation or complex mutation by WST assay
(§4) The dilution was used as a cell blank control (excluding the sample to be tested, which was added to the cells). In addition, a negative control (excluding the sample to be tested and cells) was prepared. In addition to the negative control wells, 100 μl of complete medium cell suspension was added to each well. The dilution was added to the negative control wells at 100 μl/well. 3 repeated wells were set in the experiment. […] 20 μl of CCK-8 detection solution (Shanghai Life iLab Biotech Co., LTD, Cat #D3100L4057) was added to each well, incubating at 37° C. for 2 hours in a CO2 incubator. The OD value was measured at A450 nm by a microplate reader.
(§5) The percentage of cell viability was calculated using the following formula: (O.D. test well-O.D. negative control well)/(O.D. cell control well-O.D. negative control well)×100
(§6) The IC50 was calculated using a non-linear regression data analysis method of Graphpad Prism 6.0 software ([…]).

[2] = biological target: Ba/F3 containing BCR-ABL mutation F359V (Homo sapiens, UniProt P00519, F359V, cells depend on it); conditions: read-out: Antiproliferation Effect (IC50)
Description: as §1, §2, §3, §4, §5, §6

[3] = biological target: Ba/F3 containing BCR-ABL mutation T315M (Homo sapiens, UniProt P00519, T315M, cells depend on it); conditions: read-out: Antiproliferation Effect (IC50)
Description: as §1, §2, §3, §4, §5, §6

[4] = biological target: Ba/F3 containing BCR-ABL mutation Y253H/F359V (Homo sapiens, UniProt P00519, Y253H/F359V, cells depend on it); conditions: read-out: Antiproliferation Effect (IC50)
Description: as §1, §2, §3, §4, §5, §6

[5] = biological target: Ba/F3 containing BCR-ABL mutation E255V/T315I (Homo sapiens, UniProt P00519, E255V/T315I, cells depend on it); conditions: read-out: Antiproliferation Effect (IC50)
Description: as §1, §2, §3, §4, §5, §6

[6] = biological target: Ba/F3 containing BCR-ABL mutation E255V (Homo sapiens, UniProt P00519, E255V, cells depend on it); conditions: read-out: Antiproliferation Effect (IC50)
Description: as §1, §2, §3, §4, §5, §6

[7] = biological target: Ba/F3 containing BCR-ABL mutation H396R (Homo sapiens, UniProt P00519, H396R, cells depend on it); conditions: read-out: Antiproliferation Effect (IC50)
Description: as §1, §2, §3, §4, §5, §6

[8] = test system: TKI-resistant patients with chronic phase (CP) or accelerated phase (AP) CML; test: Phase I study in TKI-resistant CML, efficacy (Example 1); assay type: in vivo, human; conditions: for CHR achieved: 2 mg to 60 mg, within 3 cycles; for CCyR achieved / MCyR achieved: evaluable ≥3 cycles; for MCyR achieved: 12 mg to 50 mg
Description: The eligible patients received treatments until disease progression or intolerable toxicities. The primary efficacy endpoint in the CML AP and CP patients, was complete hematological response (CHR) and major cytogenetic response (MCyR) respectively, MCyR includes partial cytogenetic response (PCyR) and complete cytogenetic response (CCyR). Blood samples were collected at various time points on Day 1-2 and Day 27-28 during cycle 1 for PK analyses.

[9] = Example 1, Table 2, T315I mutation
[10] = Example 1, Table 2, Without T315I mutation
[11] = FIG. 2A, CML-CP, 24 patients T315I−
[12] = FIG. 2A, CML-CP, 42 patients T315I+
[13] = FIG. 2A, CML-CP, total 66 patients
[14] = FIG. 3A, 30 mg, CML-CP, 7 patients T315I+
[15] = FIG. 3A, 30 mg, CML-CP, 7 patients T315I−
[16] = FIG. 3A, 30 mg, CML-CP, total 14 patients
[17] = FIG. 3B, 40 mg, CML-CP, 8 patients T315I−
[18] = FIG. 3B, 40 mg, CML-CP, 10 patients T315I+
[19] = FIG. 3B, 40 mg, CML-CP, total 18 patients
[20] = FIG. 3C, 50 mg, CML-CP, 4 patients T315I−
[21] = FIG. 3C, 50 mg, CML-CP, 8 patients T315I+
[22] = FIG. 3C, 50 mg, CML-CP, total 12 patients

For `Cc1ccc(C(=O)Nc2ccc(CN3CCN(C)CC3)c(C(F)(F)F)c2)cc1C#Cc1cnc2[nH]ncc2c1` [compound of formula (I-A), 3-(2-(1H-pyrazolo[3,4-b]pyridin-5-yl)ethynyl)-4-methyl-N-(4-((4-methylpiperazin-1-yl)methyl)-3-(trifluoromethyl)phenyl)-benzamide], the GI50 [1] was 7 ± 1 nM, the GI50 [2] was 281 ± 187 nM and the GI50 [3] was 217 ± 131 nM. For the same molecule, the GI50 [4] was 100 ± 81 nM, the GI50 [5] was 26 ± 11 nM and the GI50 [6] was 13.5 ± 1 nM. For the same molecule, the GI50 [7] was 274 ± 82 nM, the “activity by T315I mutation status at baseline” value ([8]; Example 1, Table 2) was “highly active in patients with or without T315I mutation at baseline” and the “Complete cytogenetic response, responders/evaluable” value ([8]; Example 1, Table 2, All) was 14/47. The “Complete hematological response, responders/evaluable” value ([8]; Example 1, Table 2, All) was 65/70, the “Major cytogenetic response, responders/evaluable” value ([8]; Example 1, Table 2, All) was 24/47 and the “Major molecular response, percent” value ([8]; Example 1, Table 2, All) was “(13%)”. For the same molecule, the “Major molecular response, responders/evaluable” value ([8]; Example 1, Table 2, All) was 6/48, the “Complete cytogenetic response, percent” value [8, 9] was “(45%)” and the “Complete cytogenetic response, responders/evaluable” value [8, 9] was 13/29. The “Complete hematological response, percent” value [8, 9] was “(89%)”, the “Complete hematological response, responders/evaluable” value [8, 9] was 40/45 and the “Major cytogenetic response, percent” value [8, 9] was “(59%)”. For the same molecule, the “Major cytogenetic response, responders/evaluable” value [8, 9] was 17/29, the “Major molecular response, percent” value [8, 9] was “(20%)” and the “Major molecular response, responders/evaluable” value [8, 9] was 6/30. For the same molecule, the “Complete cytogenetic response, percent” value [8, 10] was “(6%)”, the “Complete cytogenetic response, responders/evaluable” value [8, 10] was 1/18 and the “Complete hematological response, percent” value [8, 10] was “(100%)”. For the same molecule, the “Complete hematological response, responders/evaluable” value [8, 10] was 25/25, the “Major cytogenetic response, percent” value [8, 10] was “(39%)” and the “Major cytogenetic response, responders/evaluable” value [8, 10] was 7/18. The “Major molecular response, responders/evaluable” value [8, 10] was 0/18, the CHR achieved ([8]; Example 1, AP patients) was 7 (58%) n (%) and the CCyR achieved ([8]; Example 1, AP patients) was 2 (25%) n (%). The MCyR achieved ([8]; Example 1, AP patients) was 3 (38%) n (%), the MMR achieved ([8]; Example 1, CP patients) was 6 (15%) n (%) and the CHR achieved ([8]; Example 1, CP patients) was 58 (100%) n (%). For the same molecule, the CCyR achieved ([8]; Example 1, CP patients) was 12 (31%) n (%), the MCyR achieved ([8]; Example 1, CP patients) was 21 (54%) n (%) and the “patients who achieved MCyR or MMR at the end of cycle” value ([8]; Example 1, cycle number not given) was “More than 65%”. The CHR ([8]; FIG. 1A, CML-CP, 32 patients T315I−) was 100%, the CHR ([8]; FIG. 1A, CML-CP, 50 patients T315I+) was 96% and the CHR ([8]; FIG. 1A, CML-CP, total 82 patients) was 98%. The CHR ([8]; FIG. 1B, CML-AP, 3 patients T315I−) was 100%, the CHR ([8]; FIG. 1B, CML-AP, 11 patients T315I+) was 82% and the CHR ([8]; FIG. 1B, CML-AP, total 14 patients) was 86%. It also gave a CCyR [8, 11] of 17%, an MCyR [8, 11] of 46% and a PCyR [8, 11] of 29%. The CCyR [8, 12] was 74%, the MCyR [8, 12] was 78% and the PCyR [8, 12] was 4%. The CCyR [8, 13] was 53%, the MCyR [8, 13] was 67% and the PCyR [8, 13] was 14%. For the same molecule, the “response rate (cytogenetic)” value ([8]; FIG. 2B, CML-AP, 3 patients T315I−) was 0, the CCyR ([8]; FIG. 2B, CML-AP, 9 patients T315I+) was 33% and the MCyR ([8]; FIG. 2B, CML-AP, total 12 patients) was 25%. For the same molecule, the CCyR [8, 14] was 57%, the MCyR [8, 14] was 71% and the PCyR [8, 14] was 14%. For the same molecule, the CCyR [8, 15] was 14%, the MCyR [8, 15] was 28% and the PCyR [8, 15] was 14%. The CCyR [8, 16] was 36%, the MCyR [8, 16] was 50% and the PCyR [8, 16] was 14%. The CCyR [8, 17] was 13%, the MCyR [8, 17] was 50% and the PCyR [8, 17] was 38%. For the same molecule, the CCyR [8, 18] was 60%, the MCyR [8, 18] was 60% and the CCyR [8, 19] was 38%. The MCyR [8, 19] was 54%, the PCyR [8, 19] was 16% and the CCyR [8, 20] was 25%. For the same molecule, the MCyR [8, 20] was 50%, the PCyR [8, 20] was 25% and the CCyR [8, 21] was 75%. The MCyR [8, 21] was 100%, the PCyR [8, 21] was 25% and the CCyR [8, 22] was 58%. It also gave an MCyR [8, 22] of 83%, a PCyR [8, 22] of 25% and an MMR ([8]; FIG. 4A, CML-CP, 24 patients T315I−) of 4%. The MMR ([8]; FIG. 4A, CML-CP, 43 patients T315I+) was 47%, the MMR ([8]; FIG. 4A, CML-CP, total 67 patients) was 31% and the MMR ([8]; FIG. 4B, CML-AP, 3 patients T315I−) was 0%. For the same molecule, the MMR ([8]; FIG. 4B, CML-AP, 9 patients T315I+) was 11% and the MMR ([8]; FIG. 4B, CML-AP, total 12 patients) was 8%.
